Measured values published in paper PMC8920929 (The Journal of Biological Chemistry, 2022).

Biological target: T1, TRPV3-L508V (Homo sapiens, UniProt Q8NET8, L508V)
T1 sequence (Q8NET8 1-790 L508V): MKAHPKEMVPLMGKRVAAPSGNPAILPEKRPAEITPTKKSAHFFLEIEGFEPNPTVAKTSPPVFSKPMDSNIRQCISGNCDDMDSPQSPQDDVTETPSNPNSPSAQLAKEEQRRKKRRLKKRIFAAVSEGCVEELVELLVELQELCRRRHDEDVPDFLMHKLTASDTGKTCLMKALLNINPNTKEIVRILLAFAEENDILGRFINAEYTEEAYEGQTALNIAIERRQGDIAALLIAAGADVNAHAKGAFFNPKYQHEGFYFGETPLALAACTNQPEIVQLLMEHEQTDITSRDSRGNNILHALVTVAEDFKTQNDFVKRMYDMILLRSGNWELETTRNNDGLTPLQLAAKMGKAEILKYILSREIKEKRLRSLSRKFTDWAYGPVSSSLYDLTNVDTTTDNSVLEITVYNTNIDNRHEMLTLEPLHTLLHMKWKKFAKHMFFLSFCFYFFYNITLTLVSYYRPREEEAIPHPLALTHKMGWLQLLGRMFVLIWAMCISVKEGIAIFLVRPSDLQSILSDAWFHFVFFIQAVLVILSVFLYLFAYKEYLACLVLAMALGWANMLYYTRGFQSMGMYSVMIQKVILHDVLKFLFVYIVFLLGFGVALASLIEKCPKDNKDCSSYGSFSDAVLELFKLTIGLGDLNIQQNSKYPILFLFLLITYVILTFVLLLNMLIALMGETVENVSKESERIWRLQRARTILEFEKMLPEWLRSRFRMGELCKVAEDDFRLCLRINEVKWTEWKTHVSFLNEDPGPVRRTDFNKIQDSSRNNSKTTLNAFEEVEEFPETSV
Assay: Whole-cell and single-channel recordings of the TRPV3-L508V mutant
Assay type: cell-based
Conditions: carvacrol 0.3-3 mM

## Cc1ccc(C(C)C)cc1O [carvacrol, 5-Isopropyl-2-methylphenol]
  activation of TRPV3 L508V mutant channel: retain the channel activation
